What all share (assay): biochemical
Design in all cases: KINOMEscan active-site competition binding, percent of control (100 = no competition)
Conditions in all cases: competition binding, percent control

For assay [1], the target named is BMPR1B (Homo sapiens, UniProt O00238).
Assay [2] deals with BTK (Homo sapiens, UniProt Q06187).
For assay [3], the target named is CHEK2 (Homo sapiens, UniProt O96017).
Assay [4] addresses CSK (Homo sapiens, UniProt P41240).
The target of assay [5] is DAPK1 (Homo sapiens, UniProt P53355).
Assay [6] deals with EGFR(E746-A750del) (Homo sapiens, UniProt P00533, DEL746-750).
In assay [7] the target is EPHA3 (Homo sapiens, UniProt P29320).
Assay [8] deals with HIPK1 (Homo sapiens, UniProt Q86Z02).
Assay [9] addresses HUNK (Homo sapiens, UniProt P57058).
Assay [10] addresses T1, JAK2(JH1domain-catalytic) (Homo sapiens, UniProt O60674).
T1 construct: JH1domain-catalytic

The target in assay [11] is KIT(D816V) (Homo sapiens, UniProt P10721, D816V).
The target in assay [12] is MAP3K15 (Homo sapiens, UniProt Q6ZN16).
Assay [13] deals with MAP3K2 (Homo sapiens, UniProt Q9Y2U5).
The target of assay [14] is MAP4K2 (Homo sapiens, UniProt Q12851).
For assay [15], the target named is NEK6 (Homo sapiens, UniProt Q9HC98).
In assay [16] the target is T2, NIM1 (Homo sapiens, UniProt Q8IY84).
T2 construct: gene NIM1K

Assay [17] deals with PAK1 (Homo sapiens, UniProt Q13153).
Assay [18] deals with PIK3CB (Homo sapiens, UniProt P42338).
Sequence of PIK3CB (P42338 whole entry): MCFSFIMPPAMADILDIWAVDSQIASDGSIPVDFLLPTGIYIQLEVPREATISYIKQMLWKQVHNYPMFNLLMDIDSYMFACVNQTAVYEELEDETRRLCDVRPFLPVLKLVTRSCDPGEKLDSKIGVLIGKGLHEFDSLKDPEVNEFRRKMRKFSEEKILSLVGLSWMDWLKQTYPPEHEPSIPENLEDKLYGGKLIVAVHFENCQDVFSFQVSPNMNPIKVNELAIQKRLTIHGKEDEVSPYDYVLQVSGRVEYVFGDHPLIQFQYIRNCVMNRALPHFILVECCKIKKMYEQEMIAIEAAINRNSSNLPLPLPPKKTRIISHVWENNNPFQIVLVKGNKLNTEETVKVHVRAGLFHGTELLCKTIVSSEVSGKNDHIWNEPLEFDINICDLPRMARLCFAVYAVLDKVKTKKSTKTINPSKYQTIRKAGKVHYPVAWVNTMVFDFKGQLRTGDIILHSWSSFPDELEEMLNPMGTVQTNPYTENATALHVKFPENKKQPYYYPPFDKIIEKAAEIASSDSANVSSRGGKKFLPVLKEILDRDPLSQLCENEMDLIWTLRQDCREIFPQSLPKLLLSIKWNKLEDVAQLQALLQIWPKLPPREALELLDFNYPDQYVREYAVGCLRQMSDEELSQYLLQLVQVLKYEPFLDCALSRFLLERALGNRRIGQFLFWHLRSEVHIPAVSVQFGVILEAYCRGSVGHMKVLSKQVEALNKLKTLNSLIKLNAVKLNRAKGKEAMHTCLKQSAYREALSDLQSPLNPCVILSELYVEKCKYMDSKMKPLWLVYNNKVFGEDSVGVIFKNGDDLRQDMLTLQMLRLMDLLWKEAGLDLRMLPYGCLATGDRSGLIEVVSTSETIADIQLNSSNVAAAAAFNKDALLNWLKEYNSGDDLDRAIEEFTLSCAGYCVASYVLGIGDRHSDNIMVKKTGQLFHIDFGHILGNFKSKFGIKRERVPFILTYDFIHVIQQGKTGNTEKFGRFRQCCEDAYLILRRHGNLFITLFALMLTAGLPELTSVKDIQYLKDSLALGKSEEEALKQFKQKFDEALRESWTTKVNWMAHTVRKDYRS
For assay [19], the target named is PRKG2 (Homo sapiens, UniProt Q13237).
Sequence of PRKG2 (Q13237 whole entry): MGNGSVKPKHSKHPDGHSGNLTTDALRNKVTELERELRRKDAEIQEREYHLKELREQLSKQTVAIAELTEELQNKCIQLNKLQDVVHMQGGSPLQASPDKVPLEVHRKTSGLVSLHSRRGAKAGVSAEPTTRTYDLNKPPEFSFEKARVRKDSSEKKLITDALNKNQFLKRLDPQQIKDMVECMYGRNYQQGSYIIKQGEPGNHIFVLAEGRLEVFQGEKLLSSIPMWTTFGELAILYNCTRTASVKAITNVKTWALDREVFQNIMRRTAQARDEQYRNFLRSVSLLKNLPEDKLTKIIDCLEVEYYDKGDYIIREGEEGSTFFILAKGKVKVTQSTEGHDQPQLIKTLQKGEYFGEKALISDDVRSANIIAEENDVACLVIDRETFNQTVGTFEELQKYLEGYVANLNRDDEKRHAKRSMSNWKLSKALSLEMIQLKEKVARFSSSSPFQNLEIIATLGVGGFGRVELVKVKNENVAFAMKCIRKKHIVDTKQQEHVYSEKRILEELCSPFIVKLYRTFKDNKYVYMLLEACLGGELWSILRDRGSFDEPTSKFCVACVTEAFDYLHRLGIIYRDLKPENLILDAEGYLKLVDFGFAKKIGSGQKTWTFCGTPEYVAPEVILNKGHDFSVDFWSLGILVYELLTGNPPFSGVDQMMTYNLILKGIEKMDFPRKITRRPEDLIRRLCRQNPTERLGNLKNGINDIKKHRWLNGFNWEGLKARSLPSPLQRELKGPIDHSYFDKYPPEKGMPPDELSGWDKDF
Assay [20] deals with RIPK2 (Homo sapiens, UniProt O43353).
Sequence of RIPK2 (O43353 whole entry): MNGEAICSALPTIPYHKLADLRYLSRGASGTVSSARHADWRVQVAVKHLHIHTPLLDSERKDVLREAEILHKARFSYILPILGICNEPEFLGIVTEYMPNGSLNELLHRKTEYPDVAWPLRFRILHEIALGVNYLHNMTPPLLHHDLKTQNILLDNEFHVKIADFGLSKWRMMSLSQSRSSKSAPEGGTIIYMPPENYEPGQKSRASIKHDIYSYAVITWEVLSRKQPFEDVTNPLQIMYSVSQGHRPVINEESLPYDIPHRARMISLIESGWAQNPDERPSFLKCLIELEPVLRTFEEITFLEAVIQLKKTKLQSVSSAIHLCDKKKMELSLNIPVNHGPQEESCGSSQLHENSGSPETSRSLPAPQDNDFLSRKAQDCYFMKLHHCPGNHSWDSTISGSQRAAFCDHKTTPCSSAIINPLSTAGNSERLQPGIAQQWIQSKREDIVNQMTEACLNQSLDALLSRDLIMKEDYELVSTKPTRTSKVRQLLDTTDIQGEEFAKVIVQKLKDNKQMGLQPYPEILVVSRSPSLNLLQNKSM
Assay [21] addresses SNRK (Homo sapiens, UniProt Q9NRH2).
For assay [22], the target named is STK39 (Homo sapiens, UniProt Q9UEW8).
The target in assay [23] is ULK3 (Homo sapiens, UniProt Q6PHR2).
Sequence of ULK3 (Q6PHR2 whole entry): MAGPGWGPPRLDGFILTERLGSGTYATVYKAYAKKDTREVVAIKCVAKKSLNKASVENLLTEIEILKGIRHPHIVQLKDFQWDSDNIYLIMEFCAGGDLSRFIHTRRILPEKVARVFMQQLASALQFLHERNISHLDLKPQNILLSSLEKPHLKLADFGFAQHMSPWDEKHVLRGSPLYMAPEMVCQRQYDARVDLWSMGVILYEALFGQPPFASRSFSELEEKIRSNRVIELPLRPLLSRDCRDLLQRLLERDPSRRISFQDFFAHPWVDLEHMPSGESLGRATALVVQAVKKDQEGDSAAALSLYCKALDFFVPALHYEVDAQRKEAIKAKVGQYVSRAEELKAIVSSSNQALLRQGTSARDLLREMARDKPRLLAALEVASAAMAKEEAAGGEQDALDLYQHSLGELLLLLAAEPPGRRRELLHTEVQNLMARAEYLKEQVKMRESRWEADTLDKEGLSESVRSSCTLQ

Sequence of HUNK (P57058 whole entry): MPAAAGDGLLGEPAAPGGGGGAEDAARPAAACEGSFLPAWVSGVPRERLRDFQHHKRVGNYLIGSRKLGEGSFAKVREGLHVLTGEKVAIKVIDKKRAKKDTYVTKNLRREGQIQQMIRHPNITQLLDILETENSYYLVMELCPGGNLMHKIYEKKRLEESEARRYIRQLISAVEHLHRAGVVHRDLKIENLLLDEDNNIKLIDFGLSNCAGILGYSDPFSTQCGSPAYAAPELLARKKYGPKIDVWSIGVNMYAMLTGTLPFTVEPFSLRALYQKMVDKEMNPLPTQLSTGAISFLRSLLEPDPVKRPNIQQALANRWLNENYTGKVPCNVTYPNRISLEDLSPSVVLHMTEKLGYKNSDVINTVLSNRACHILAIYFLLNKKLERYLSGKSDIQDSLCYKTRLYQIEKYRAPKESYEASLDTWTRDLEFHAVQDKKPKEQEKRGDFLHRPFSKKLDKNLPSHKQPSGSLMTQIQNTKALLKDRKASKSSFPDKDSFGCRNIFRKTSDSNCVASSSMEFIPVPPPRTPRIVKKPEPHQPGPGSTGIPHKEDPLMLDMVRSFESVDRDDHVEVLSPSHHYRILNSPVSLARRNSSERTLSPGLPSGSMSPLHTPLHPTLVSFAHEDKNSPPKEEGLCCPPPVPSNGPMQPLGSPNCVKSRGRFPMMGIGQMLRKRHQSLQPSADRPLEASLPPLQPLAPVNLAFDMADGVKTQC
Sequence of SNRK (Q9NRH2 whole entry): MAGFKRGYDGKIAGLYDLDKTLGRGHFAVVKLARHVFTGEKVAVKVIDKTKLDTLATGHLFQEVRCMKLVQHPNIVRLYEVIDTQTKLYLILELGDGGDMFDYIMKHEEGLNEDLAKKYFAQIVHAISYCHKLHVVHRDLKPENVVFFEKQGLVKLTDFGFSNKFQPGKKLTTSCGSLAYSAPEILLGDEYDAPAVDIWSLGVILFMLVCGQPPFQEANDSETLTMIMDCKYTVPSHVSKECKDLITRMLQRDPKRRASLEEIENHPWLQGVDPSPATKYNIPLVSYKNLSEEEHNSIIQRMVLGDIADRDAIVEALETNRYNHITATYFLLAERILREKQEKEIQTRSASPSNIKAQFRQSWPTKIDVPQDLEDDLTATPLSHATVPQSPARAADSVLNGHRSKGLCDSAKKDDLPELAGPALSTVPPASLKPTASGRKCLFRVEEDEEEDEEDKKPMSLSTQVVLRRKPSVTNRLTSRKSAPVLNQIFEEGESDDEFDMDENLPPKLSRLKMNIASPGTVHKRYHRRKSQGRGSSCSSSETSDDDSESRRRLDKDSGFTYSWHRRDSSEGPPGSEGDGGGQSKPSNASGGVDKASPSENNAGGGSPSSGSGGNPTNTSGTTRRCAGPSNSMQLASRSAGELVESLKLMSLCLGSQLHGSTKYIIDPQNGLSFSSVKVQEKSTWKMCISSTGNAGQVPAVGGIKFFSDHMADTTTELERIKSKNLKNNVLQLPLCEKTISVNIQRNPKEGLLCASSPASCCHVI
Sequence of CSK (P41240 whole entry): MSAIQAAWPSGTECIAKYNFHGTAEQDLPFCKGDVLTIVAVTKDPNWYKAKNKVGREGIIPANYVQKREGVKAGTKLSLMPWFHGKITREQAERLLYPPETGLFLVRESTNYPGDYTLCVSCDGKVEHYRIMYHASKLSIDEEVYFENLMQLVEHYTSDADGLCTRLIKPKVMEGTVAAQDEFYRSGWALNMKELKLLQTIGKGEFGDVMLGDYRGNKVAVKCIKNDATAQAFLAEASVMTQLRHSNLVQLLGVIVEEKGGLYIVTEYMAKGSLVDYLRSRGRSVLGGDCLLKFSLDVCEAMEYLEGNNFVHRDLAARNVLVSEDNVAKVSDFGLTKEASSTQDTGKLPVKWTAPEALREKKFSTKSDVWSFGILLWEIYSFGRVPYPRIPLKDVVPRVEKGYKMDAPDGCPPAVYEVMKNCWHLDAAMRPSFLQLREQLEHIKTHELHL

Turning to `COc1ccc(-c2cnccc2-c2cnc(NC(=O)C(C)C)s2)c(C(F)(F)F)c1` [CRT0105446, N-{5-[3-(4-Methoxy-2-trifluoromethyl-phenyl)-pyridin-4-yl]-hiazol-2-yl}-isobutyramide], the remaining binding at 10 µM stood at 92% in assay [1]; 85% in [2]; 100% in assay [3]; 91% in assay [4]; 100% in [5]; 100% in [6]. In addition, the remaining binding at 10 µM in [7] is 87%; in [8] it was 100%; in assay [9] it was 89%; in [10] it was 100%; in assay [11], 83%; in assay [12], 93%. Moreover, the remaining binding at 10 µM in assay [13] turned out to be 82%; in assay [14], 100%; in [15], 95%; in assay [16], 100%; in assay [17], 57%; in [18], 95%. The remaining binding at 10 µM in assay [19] stood at 100%; in assay [20] it was 80%; in assay [21] it was 81%; in assay [22] it was 100%; in assay [23], 100%.

Take `Cc1ccc(-c2cnccc2-c2cnc(Nc3ccc(O)cc3)s2)c(Cl)c1` [CRT0105950, 4-{5-[3-(2-Chloro-4-methyl-phenyl)-pyridin-4-yl]-thiazol-2-ylamino}-phenol]: the remaining binding at 10 µM worked out at 29% in assay [1]; 72% in [2]; 55% in assay [3]; 71% in assay [4]; 82% in assay [5]; 78% in assay [6]. For the same compound, the remaining binding at 10 µM in assay [7] stood at 71%; in assay [8], 65%; in assay [9] it was 49%; in [10], 19%; in assay [11], 2.8%; in assay [12], 82%. Further, the remaining binding at 10 µM was 15% in assay [13]; 81% in assay [14]; 100% in assay [15]; 100% in [16]; 97% in assay [17]; 80% in [18]. In addition, the remaining binding at 10 µM in assay [19] worked out at 73%; in assay [20] it was 18%; in assay [21], 100%; in [22], 100%; in assay [23], 68%.

The values are drawn from publication PMC4770715, “LIM kinase inhibitors disrupt mitotic microtubule organization and impair tumor cell proliferation” (Oncotarget, 2015).
